Structures can show the parent of a compound that is named as a salt.
| SMILES | melting point |
| --- | --- |
| CCOc1ccc(N(C)CCC2(O)CCN(C(c3ccccc3)c3ccccc3)CC2)cc1 [Example 133, 1-diphenylmethyl-4-[2-[N-(4-ethoxyphenyl)-N-methylamino]ethyl]piperidin-4-ol] | 94.3 to 95.8 °C |
| COC(=O)c1cccc(CN2CCC(O)(CCN(C)c3ccc(OC(C)C)cc3)CC2)c1 [Example 111, 1-[3-(methoxycarbonyl)phenylmethyl]-4-[2-[N-methyl-N-(4-isopropoxyphenyl)amino]ethyl]piperidin-4-ol] | 53.8 to 54.7 °C |
| CC(C)Oc1ccc(N(C)CCC2(O)CCN(Cc3ccc(C(F)(F)F)cc3)CC2)cc1 (as salt: hydrochloride) [Example 221, 4-[2-[N-methyl-N-(4-isopropoxyphenyl)amino]ethyl]-1-[4-(trifluoromethyl)phenylmethyl]piperidin-4-ol dihydrochloride] | 241.2 to 242.6 °C |
| CC(C)Oc1ccc(N(C)CCC2(O)CCN(Cc3ccc(F)cc3)CC2)cc1 [Example 78, 1-(4-fluorophenylmethyl)-4-[2-[N-methyl-N-(4-isopropoxyphenyl)amino]ethyl]piperidin-4-ol] | 69.2 to 70 °C |
| CCCCOc1ccc(N(C)CCC2(O)CCN(Cc3cccc(F)c3)CC2)cc1 [Example 29, 4-[2-[N-(4-n-butoxyphenyl)-N-methylamino]ethyl]-1-(3-fluorophenylmethyl)piperidin-4-ol] | 46.7 to 47.2 °C |
| CCCCOc1ccc(N(CCC2(O)CCN(Cc3ccccc3)CC2)C(C)=O)cc1 [Example 56, 4-[2-[N-acetyl-N-(4-n-butoxyphenyl)amino]-ethyl]-1-benzylpiperidin-4-ol] | 89.7 to 90.6 °C |
| COc1cccc(CN2CCC(O)(CCN(C)c3ccc(OC(C)C)cc3)CC2)c1 [Example 77, 1-(3-methoxyphenylmethyl)-4-[2-[N-methyl-N-(4-isopropoxyphenyl)amino]ethyl]piperidin-4-ol] | 45.1 to 46.5 °C |
| CCOC(=O)c1ccc(CN2CCC(O)(CCN(C)c3ccc(OC(C)C)cc3)CC2)cc1 [Example 106, 1-[4-(ethoxycarbonyl)phenylmethyl]-4-[2-[N-methyl-N-(4-isopropoxyphenyl)amino]ethyl]piperidin-4-ol] | 50.3 to 51.6 °C |
| CC(C)Oc1ccc(N(C)CCC2(O)CCN(Cc3ccc(Br)cc3F)CC2)cc1 [Example 93, 1-(4-bromo-2-fluorophenylmethyl)-4-[2-[N-methyl-N-(4-isopropoxyphenyl)amino]ethyl]piperidin-4-ol] | 99.8 to 100.9 °C |
| CCCCOc1ccc(N(C)CCC2(O)CCN(Cc3ccc(F)cc3)CC2)cc1 (as salt: hydrochloride) [Example 177, 4-[2-[N-(4-n-butoxyphenyl)-N-methylamino]ethyl]-1(4-fluorophenylmethyl)piperidin-4-ol dihydrochloride] | 209 °C (dec.) |
| CCCCOc1ccc(N(C)CC(O)C2(O)CCN(CCc3ccc(F)cc3)CC2)cc1 (centres unmarked) (as salt: hydrochloride) [Example 196, 4-[2-[N-(4-n-butoxyphenyl)-N-methylamino]-1-hydroxyethyl]-1-[2-(4-fluorophenyl)ethyl]piperidin-4-ol dihydrochloride] | 191.2 to 198.7 °C |
| CC(C)Oc1ccc(N(C)CCC2(O)CCN(Cc3ccc(OC(F)(F)F)cc3)CC2)cc1 (as salt: hydrochloride) [Example 236, 4-[2-[N-methyl-N-(4-isopropoxyphenyl)amino]ethyl]-1-(4-trifluoromethoxyphenylmethyl)piperidin-4-ol dihydrochloride] | 233.2 to 234.9 °C |
| CC(C)Oc1ccc(N(C)CCC2(O)CCN(Cc3ccc(OC(F)(F)F)cc3)CC2)cc1 [Example 89, 4-[2-[N-methyl-N-(4-isopropoxyphenyl)amino]ethyl]-1-(4-trifluoromethoxyphenylmethyl)piperidin-4-ol] | 84.7 to 85.1 °C |
| CC(C)Oc1ccc(N(C)CCC2(O)CCN(Cc3ccc(C(F)(F)F)cc3)CC2)cc1 [Example 74, 4-[2-[N-methyl-N-(4-isopropoxyphenyl)amino]ethyl]-1-[4-(trifluoromethyl)phenylmethyl]piperidin-4-ol] | 109.9 to 110.6 °C |
| CSc1ccc(CN2CCC(O)(CCN(C)c3ccc(OC(C)C)cc3)CC2)cc1 [Example 109, 4-[2-[N-methyl-N-(4-isopropoxyphenyl)amino]ethyl]-1-[4-(methylthio)phenylmethyl]piperidin-4-ol] | 66.2 to 68 °C |
| CC(C)Oc1ccc(N(C)CCC2(O)CCN(Cc3ccc([N+](=O)[O-])cc3)CC2)cc1 [Example 84, 4-[2-[N-methyl-N-(4-isopropoxyphenyl)amino]ethyl]-1-(4-nitrophenylmethyl)piperidin-4-ol] | 62.5 to 63.1 °C |
| CC(C)Oc1ccc(N(C)CCC2(O)CCN(Cc3cccc(F)c3)CC2)cc1 [Example 94, 1-(3-fluorophenylmethyl)-4-[2-[N-methyl-N-(4-isopropoxyphenyl)amino]ethyl]piperidin-4-ol] | 52.5 to 54.6 °C |
| CCCCOc1ccc(N(C)CCC2(O)CCN(Cc3ccc4c(c3)OCO4)CC2)cc1 (as salt: hydrochloride) [Example 162, 4-[2-[N-(4-n-butoxyphenyl)-N-methylamino]ethyl]-1-(3,4-methylenedioxyphenylmethyl)piperidin-4-ol dihydrochloride] | 211 °C (dec.) |

| SMILES | melting point |
| --- | --- |
| CC(C)Oc1ccc(N(C)CCC2(O)CCN(Cc3ccc(Br)cc3F)CC2)cc1 (as salt: hydrochloride) [Example 240, 1-(4-bromo-2-fluorophenylmethyl)-4-[2-[N-methyl-N-(4-isopropoxyphenyl)amino]ethyl]piperidin-4-ol dihydrochloride] | 228.3 to 229.1 °C |
| CC(C)Oc1ccc(NCCC2(O)CCN(C(c3ccccc3)c3ccccc3)CC2)cc1 [Example 136, 1-diphenylmethyl-4-[2-[N-(4-isopropoxyphenyl)-amino]ethyl]piperidin-4-ol] | 170 to 171.2 °C |
| CCCCOc1ccc(N(C)CCC2(O)CCN(Cc3ccc(C#N)cc3)CC2)cc1 [Example 22, 4-[2-[N-(4-n-butoxyphenyl)-N-methylamino]ethyl]-1(4-cyanophenylmethyl)piperidin-4-ol] | 83.5 to 85.5 °C |
| CC(C)Oc1ccc(N(C)CCC2(O)CCN(Cc3cccs3)CC2)cc1 (as salt: hydrochloride) [Example 254, 4-[2-[N-methyl-N-(4-isopropoxyphenyl)amino]ethyl]-1(2-thienylmethyl)piperidin-4-ol dihydrochloride] | 216.5 to 217.5 °C |
| CCCCOc1ccc(N(C)CCC2(O)CCN(Cc3ccc(Cl)cc3)CC2)cc1 [Example 20, 4-[2-[N-(4-n-butoxyphenyl)-N-methylamino]ethyl]-1-(4-chlorophenylmethyl)piperidin-4-ol] | 67.7 to 68.3 °C |
| CCCCCOc1ccc(N(C)CCC2(O)CCN(Cc3ccccc3)CC2)cc1 [Example 15, 1-Benzyl-4-[2-[N-methyl-N-(4-n-pentyloxyphenyl)-amino]ethyl]piperidin-4-ol] | 58.5 to 60.3 °C |
| CC(C)Oc1ccc(N(C)CCC2(O)CCN(Cc3cccc(C(F)(F)F)c3)CC2)cc1 [Example 85, 4-[2-[N-methyl-N-(4-isopropoxyphenyl)amino]ethyl]-1-[3-(trifluoromethyl)phenylmethyl]piperidin-4-ol] | 60.8 to 61.1 °C |
| CCCCOc1ccc(N(C)CCC2(O)CCN(CCc3ccc(F)cc3F)CC2)cc1 (as salt: hydrochloride) [Example 183, 4-[2-[N-(4-n-butoxyphenyl)-N-methylamino]ethyl]-1-[2-(2,4-difluorophenyl)ethyl]piperidin-4-ol dihydrochloride] | 209 °C (dec.) |
| CCCCOc1ccc(N(C)CCC2(O)CCN(CC(O)c3ccc(F)cc3)CC2)cc1 (centres unmarked) (as salt: hydrochloride) [Example 198, 4-[2-[N-(4-n-butoxyphenyl)-N-methylamino]ethyl]-1-[2-(4-fluorophenyl)-2-hydroxyethyl]piperidin-4-ol dihydrochloride] | 174.9 to 184.5 °C |
| CCCCOc1ccc(N(C)CCC2(O)CCN(Cc3ccc(N(C)C)cc3)CC2)cc1 [Example 24, 4-[2-[N-(4-n-butoxyphenyl)-N-methylamino]ethyl]-1-[4-(dimethylamino)phenylmethyl]piperidin-4-ol] | 71.3 to 73 °C |
| CCCCOc1ccc(N(C)CCC2(O)CCN(Cc3ccc(C(F)(F)F)cc3)CC2)cc1 [Example 21, 4-[2-[N-(4-n-butoxyphenyl)-N-methylamino]ethyl]-1-[4-(trifluoromethyl)phenylmethyl]piperidin-4-ol] | 77.4 to 78.2 °C |
| CCCCOc1ccc(N(C)CCC2(O)CCN(CC(O)c3ccc(F)cc3)CC2)cc1 (centres unmarked) [Example 55, 4-[2-[N-(4-n-butoxyphenyl)-N-methylamino]ethyl]-1-[2-(4-fluorophenyl)-2-hydroxyethyl]piperidin-4-ol] | 92.8 to 94.5 °C |
| CC(C)COc1ccc(N(C)CCC2(O)CCN(Cc3ccccc3)CC2)cc1 [Example 16, 1-Benzyl-4-[2-[N-(4-isobutoxyphenyl)-N-methylamino]-ethyl]piperidin-4-ol] | 50.6 to 52.5 °C |
| CC(C)Oc1ccc(N(C)CCC2(O)CCN(Cc3ccc(OC(C)C)cc3F)CC2)cc1 [Example 90, 1-(2-fluoro-4-isopropoxyphenylmethyl)-4-[2-[N-methyl-N-(4-isopropoxyphenyl)amino]ethyl]piperidin-4-ol] | 65.1 to 66.1 °C |
| CC(C)Oc1ccc(N(C)CCC2(O)CCN(Cc3ccc4ccccc4c3)CC2)cc1 [Example 80, 4-[2-[N-methyl-N-(4-isopropoxyphenyl)amino]ethyl]-1-(2-naphthylmethyl)piperidin-4-ol] | 76.2 to 76.8 °C |
| CC(C)Oc1ccc(N(C)CCC2(O)CCN(Cc3ccc(Br)cc3)CC2)cc1 (as salt: hydrochloride) [Example 220, 1-(4-bromophenylmethyl)-4-[2-[N-methyl-N-(4-isopropoxyphenyl)amino]ethyl]piperidin-4-ol dihydrochloride] | 224.4 to 226.2 °C |
| CCCCOc1ccc(N(C)CCC2(O)CCN(CC(O)c3ccccc3)CC2)cc1 (centres unmarked) [Example 54, 4-[2-[N-(4-n-butoxyphenyl)-N-methylamino]-ethyl]-1-(2-phenyl-2-hydroxyethyl)piperidin-4-ol] | 104 to 104.8 °C |
